# Test results published in publication PMC10296720, “A Truncated 14-Amino-Acid Myelin Protein-Zero-Targeting Peptide for Fluorescence-Guided Nerve-Preserving Surgery” (Biomolecules, 2023).
# Where a SMILES comes first, the peptide text is derived from it. The star is where a group is joined. X2 = CC1(C)C(=CC=CC=CC2=[N+](CCCCS(=O)(=O)[O-])c3ccc(S(=O)(=O)O)cc3C2(C)C)N(CCCCCC(=O)NCCN2C(=O)CC(*)C2=O)c2ccc(S(=O)(=O)O)cc21
# Key:
# [1] = LogP; format: physicochemical; details: as previously described (refs 27, 31, 36)
# Method: (§1) Determination of the chemical and photophysical properties (LogP, solubility, serum binding, net charge, and brightness) was performed as previously described.
# [2] = Serum binding; format: in vitro ADME; details: as previously described (refs 27, 31, 36)
# Method: as §1
# [3] = Solubility; format: physicochemical; details: as previously described (refs 27, 31, 36)
# Method: as §1
# [4] = system: P0-expressing RT4 D6P2T myelinating Schwannoma cells; assay: P0 staining and co-localization via fluorescence confocal microscopy; format: cell-based; details: 1 μM tracer, 1 h at 4 °C
# Method: All chemicals were received from Actu-All Chemical (Oss, The Netherlands), Sigma Aldrich (St. Louis, MO, USA), Tokyo Chemical Industry (Tokyo, Japan), Biosolve BV (Valkenswaard, The Netherlands), and VWR Chemicals (Solon, OH, USA) and used without further purification. DMF and DMSO were dried over 4 Å molecular sieves for at least 24 h prior to use. Preparative high-pressure liquid chromatography (prep-HPLC) was performed on a Waters HPLC system (Waters Chromatography B.V., Etten-Leur, The Netherlands) using a 2545 quaternary gradient module pump and a 2489 UV detector. […] Absorption spectrometry was performed using a UV1280 UV–vis spectrometer (Shimadzu, Kyoto, Japan), and fluorescence spectrometry was performed using an LS55 (Perkin Elmer, Waltham, MA, USA). Fluorescence confocal imaging was performed using an SP8 WLL confocal microscope (Leica Microsystems, Wetzlar, Germany). The obtained images were analyzed using Leica Confocal Software (Leica Microsystems). The mean fluorescence intensity values per sample were measured using an LSRII flow cytometer (BD Biosciences, Franklin Lakes, NJ, USA) with APC-A settings (635 nm laser and 750 nm long-pass filter) for a Cy5 dye. […]
# Semi-quenatitative assessment of the level of co-staining within the fluorescence […]
# [5] = Brightness (in HSA); format: physicochemical, human; details: in human serum albumin
# Method: as §1
# [6] = molecular target: myelin protein zero (Homo sapiens) (UniProt P25189); details: cited from earlier work
# Chain of myelin protein zero (Homo sapiens) (P25189 30-153): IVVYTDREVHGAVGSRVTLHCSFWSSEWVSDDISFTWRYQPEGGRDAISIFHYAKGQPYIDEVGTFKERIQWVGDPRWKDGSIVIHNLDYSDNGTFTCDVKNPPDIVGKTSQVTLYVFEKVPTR
Compound,LogP [1],fraction unbound [2],Solubility [3],"Co-localization factor (scale: 0-1), Cy5 vs Lysosomes ([4]; N = 3 per tracer, semi-quantitative, Image J)",Brightness (in HSA) [5],Kd [6],"P0-related staining (pattern and intensity) ([4]; confocal microscopy, in words)"
CC[C@H](C)[C@H](NC(=O)[C@H](CC(=O)O)NC(C)=O)C(=O)N[C@H](C(=O)NCC(=O)N[C@@H](CCCCN)C(=O)N[C@H](C(=O)N[C@@H](CO)C(=O)N[C@@H](CCC(N)=O)C(=O)N[C@H](C(=O)N[C@H](C(=O)N[C@@H](CC(C)C)C(=O)N[C@@H](Cc1ccc(O)cc1)C(=O)N[C@H](C(=O)N[C@@H](Cc1ccccc1)C(=O)N[C@@H](CCC(=O)O)C(=O)N[C@@H](CCCCN)C(=O)N[C@H](C(=O)N1CCC[C@H]1C(=O)N[C@H](C(=O)N[C@@H](CCCNC(=N)N)C(=O)N[C@@H](Cc1ccc(O)cc1)C(=O)N[C@@H](CSC1CC(=O)N(CCNC(=O)CCCCCN2C(=CC=CC=CC3=[N+](CCCCS(=O)(=O)[O-])c4ccc(S(=O)(=O)O)cc4C3(C)C)C(C)(C)c3cc(S(=O)(=O)O)ccc32)C1=O)C(N)=O)[C@@H](C)O)C(C)C)C(C)C)[C@@H](C)O)C(C)C)[C@@H](C)O)C(C)C (stereo partly drawn) [Cy5-P0_105–125] (Ac-DIVGKTSQVTLYVFEKVPTRYC(X2)-NH2; N-terminus and C-terminus assumed),−0.60 ± 0.04,0.44,9 µM,low,"157,300",,
Cy5-P0101-125 101-125 (from UniProt P25189),,,,,,104 nM,
KNPPDIVGKTSQVTLYVFEKVPTRY [Cy5-P0_101–125],,,172 µM,,"67,760",,in agreement with the location of P0 on the membrane
